# Source: ChEMBL document CHEMBL5338707, “Design, synthesis and bioactivity evaluation of favorable evodiamine derivative scaffold for developing cancer therapy” (Eur J Med Chem, 2022)
# Calls of active or inactive are those of the source. The calls are words filed in the database; no cut-off is given here.
# Tests used:
# [1] = system: MGC-803; assay: Induction of apoptosis in human MGC-803 cells assessed as early apoptotic cells at 96 nM incubated for 24 hrs by AnnexinV-FITC/PI staining based flow cytometric analysis (reference value: 0.38%); assay type: functional
# [2] = system: MGC-803; assay: Cell cycle arrest in human MGC-803 cells assessed as accumulation of cells at G2/M phase at 12 nM incubated for 24 hrs by PI staining based flow cytometric analysis (Rvb =15.42%); assay type: functional
# [3] = system: SGC-7901; assay: Antimigratory activity against human SGC-7901 cells assessed as reduction in number of migrating cells at 48 nM incubated for 24 hrs by transwell migration assay relative to control; assay type: functional; design: scale not given: the % may be the effect or the level left
# [4] = system: SGC-7901; assay: Induction of apoptosis in human SGC-7901 cells assessed as late apoptotic cells at 12 nM incubated for 24 hrs by AnnexinV-FITC/PI staining based flow cytometric analysis (reference value: 2.00%); assay type: functional
# [5] = system: MGC-803; assay: Cell cycle arrest in human MGC-803 cells assessed as accumulation of cells at G2/M phase at 3 nM incubated for 24 hrs by PI staining based flow cytometric analysis (Rvb =15.42%); assay type: functional
# [6] = system: MGC-803; assay: Cell cycle arrest in human MGC-803 cells assessed as accumulation of cells at G0/G1 phase at 3 nM incubated for 24 hrs by PI staining based flow cytometric analysis (Rvb =76.60%); assay type: functional
# [7] = system: MGC-803; assay: Induction of apoptosis in human MGC-803 cells assessed as early apoptotic cells at 48 nM incubated for 24 hrs by AnnexinV-FITC/PI staining based flow cytometric analysis (reference value: 0.38%); assay type: functional
# [8] = system: SGC-7901; assay: Cell cycle arrest in human SGC-7901 cells assessed as accumulation of cells at G2/M phase at 12 nM incubated for 24 hrs by PI staining based flow cytometric analysis (Rvb =18.84%); assay type: functional
# [9] = system: MGC-803; assay: Cell cycle arrest in human MGC-803 cells assessed as accumulation of cells at G0/G1 phase at 48 nM incubated for 24 hrs by PI staining based flow cytometric analysis (Rvb =76.60%); assay type: functional
# [10] = AUC (0 to t) in rat at 50 mg/kg, ip measured at 0.25 to 24 hrs by LC-MS analysis; assay type: ADME, organism-based; design: dose 50 mg/kg, time upper 24 hrs, time lower 0.25 hrs, route ip; details: in vivo
# [11] = biological target: T1, DNA topoisomerase 1 (Homo sapiens) (UniProt P11387); assay: Inhibition of Topoisomerase 1 (unknown origin) at 25 uM incubated for 15 mins by electrophoretic analysis relative to control
# T1 sequence (whole entry): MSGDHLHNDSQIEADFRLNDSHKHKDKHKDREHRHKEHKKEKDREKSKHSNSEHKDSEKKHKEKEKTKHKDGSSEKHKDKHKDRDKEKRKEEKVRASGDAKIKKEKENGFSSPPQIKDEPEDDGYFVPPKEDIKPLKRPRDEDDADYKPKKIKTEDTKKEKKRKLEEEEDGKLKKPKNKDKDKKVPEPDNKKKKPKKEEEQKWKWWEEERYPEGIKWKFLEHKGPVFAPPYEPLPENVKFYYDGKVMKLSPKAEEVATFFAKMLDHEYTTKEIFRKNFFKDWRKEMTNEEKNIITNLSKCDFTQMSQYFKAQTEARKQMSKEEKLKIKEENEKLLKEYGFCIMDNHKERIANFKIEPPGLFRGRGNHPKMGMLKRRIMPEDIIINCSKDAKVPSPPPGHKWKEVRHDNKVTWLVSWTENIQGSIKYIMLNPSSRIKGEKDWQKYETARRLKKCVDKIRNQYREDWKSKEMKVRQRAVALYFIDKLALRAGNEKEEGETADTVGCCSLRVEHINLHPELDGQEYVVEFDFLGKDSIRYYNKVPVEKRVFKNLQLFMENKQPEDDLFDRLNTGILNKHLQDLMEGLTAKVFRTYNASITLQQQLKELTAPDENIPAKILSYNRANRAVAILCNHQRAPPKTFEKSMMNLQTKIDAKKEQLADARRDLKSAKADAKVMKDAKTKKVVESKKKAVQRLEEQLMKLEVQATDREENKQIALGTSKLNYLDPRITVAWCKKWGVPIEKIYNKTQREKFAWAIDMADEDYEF
# [12] = system: SGC-7901; assay: Induction of apoptosis in human SGC-7901 cells assessed as viable cells at 96 nM incubated for 24 hrs by AnnexinV-FITC/PI staining based flow cytometric analysis (reference value: 96.94%); assay type: functional; details: read-out: Activity
# [13] = system: SGC-7901; assay: Induction of apoptosis in human SGC-7901 cells assessed as viable cells at 48 nM incubated for 24 hrs by AnnexinV-FITC/PI staining based flow cytometric analysis (reference value: 96.94%); assay type: functional; details: read-out: Activity
# [14] = system: SGC-7901; assay: Cell cycle arrest in human SGC-7901 cells assessed as accumulation of cells at S phase at 3 nM incubated for 24 hrs by PI staining based flow cytometric analysis (Rvb =18.41%); assay type: functional
# [15] = system: SGC-7901; assay: Cell cycle arrest in human SGC-7901 cells assessed as accumulation of cells at G0/G1 phase at 48 nM incubated for 24 hrs by PI staining based flow cytometric analysis (Rvb =84.12%); assay type: functional
# [16] = biological target: DNA topoisomerase II (Homo sapiens) (UniProt P11388+Q02880); assay: Inhibition of Topoisomerase 2 (unknown origin) at 25 uM incubated for 15 mins in the presence of ATP by electrophoretic analysis relative to control; assay type: protein assay
# [17] = system: SGC-7901; assay: Induction of apoptosis in human SGC-7901 cells assessed as late apoptotic cells at 96 nM incubated for 24 hrs by AnnexinV-FITC/PI staining based flow cytometric analysis (reference value: 2.00%); assay type: functional
# [18] = system: SGC-7901; assay: Cell cycle arrest in human SGC-7901 cells assessed as accumulation of cells at G0/G1 phase at 12 nM incubated for 24 hrs by PI staining based flow cytometric analysis (Rvb =84.12%); assay type: functional
# [19] = system: SGC-7901; assay: Cell cycle arrest in human SGC-7901 cells assessed as accumulation of cells at G2/M phase at 3 nM incubated for 24 hrs by PI staining based flow cytometric analysis (Rvb =18.84%); assay type: functional
# [20] = system: SGC-7901; assay: Induction of apoptosis in human SGC-7901 cells assessed as early apoptotic cells at 48 nM incubated for 24 hrs by AnnexinV-FITC/PI staining based flow cytometric analysis (reference value: 0.47%); assay type: functional
# [21] = biological target: T1, DNA topoisomerase 1 (Homo sapiens); assay: Inhibition of Topoisomerase 1 (unknown origin) at 50 uM incubated for 15 mins by electrophoretic analysis
# [22] = system: MGC-803; assay: Induction of apoptosis in human MGC-803 cells assessed as late apoptotic cells at 96 nM incubated for 24 hrs by AnnexinV-FITC/PI staining based flow cytometric analysis (reference value: 0.52%); assay type: functional
# [23] = system: SGC-7901; assay: Cell cycle arrest in human SGC-7901 cells assessed as accumulation of cells at S phase at 12 nM incubated for 24 hrs by PI staining based flow cytometric analysis (Rvb =18.41%); assay type: functional
# [24] = system: MGC-803; assay: Induction of apoptosis in human MGC-803 cells assessed as viable cells at 48 nM incubated for 24 hrs by AnnexinV-FITC/PI staining based flow cytometric analysis (reference value: 98.59%); assay type: functional; details: read-out: Activity
# [25] = system: SGC-7901; assay: Induction of apoptosis in human SGC-7901 cells assessed as viable cells at 12 nM incubated for 24 hrs by AnnexinV-FITC/PI staining based flow cytometric analysis (reference value: 96.94%); assay type: functional; details: read-out: Activity
# [26] = biological target: T1, DNA topoisomerase 1 (Homo sapiens); assay: Inhibition of Topoisomerase 1 (unknown origin) at 100 uM incubated for 15 mins by electrophoretic analysis
SMILES,Activity [1] [%],Activity [2] [%],Activity [3] [%],Activity [4] [%],Activity [5] [%],Activity [6] [%],Activity [7] [%],Activity [8] [%],Activity [9] [%],AUC(0-t) [10] [ng·h/mL],inhibition [11] [%],viability at 0.096 µM [12] [%],viability at 0.048 µM [13] [%],Activity [14] [%],Activity [15] [%],inhibition [16] [%],Activity [17] [%],Activity [18] [%],Activity [19] [%],Activity [20] [%],also measured
CC(=O)Oc1ccc2[nH]c3c(c2c1)CCN1C(=O)c2cc(F)ccc2N(c2cccc(F)c2)C31 (configuration not stated),16.23,18.09,36.12,6.3,13.29,78.98,2.64,18.95,22.05,17800,70.5,71,80.6,15.57,22.01,71.8,23.52,60.64,20.47,2.58,inhibition [21]: Active; Activity [22]: 21.94%; Activity [23]: 20.39%; viability at 0.048 µM [24]: 82.2%; viability at 0.012 µM [25]: 91.5%; inhibition [26]: Active
O=C1c2cc(F)ccc2N(c2cccc(F)c2)C2c3[nH]c4ccc(O)cc4c3CCN12 (configuration not stated),1.6,17.69,41.06,3.58,15.36,77.18,1.05,19.72,6.47,12300,55.1,69.6,89.8,13.44,6.5,55.5,26.02,63.89,16.45,1.4,inhibition [21]: Active; Activity [22]: 20.56%; Activity [23]: 15.73%; viability at 0.048 µM [24]: 86.2%; viability at 0.012 µM [25]: 94.7%; inhibition [26]: Active
